Columns and labels:
Format in all cases: in vivo
[1] = test system: ABUTH (Abutylon threophrasti); assay: Post-emergence herbicidal action against ABUTH; conditions: visual assessment after about 3 weeks
Procedure: (§1) Seeds of monocotyledonous and dicotyledonous weed and crop plants are laid out in sandy loam soil in wood-fiber pots, covered with soil and cultivated in a greenhouse under good growth conditions. 2 to 3 weeks after sowing, the trial plants are treated at the one-leaf stage. The compounds of the invention, formulated in the form of wettable powders (WP) or as emulsion concentrates (EC), are then sprayed onto the green parts of the plants as aqueous suspension or emulsion at a water application rate equating to 600 to 800 l/ha with addition of 0.2% wetting agent. After the test plants have been left to stand in the greenhouse under optimal growth conditions for about 3 weeks, the action of the preparations is assessed visually in comparison to untreated controls (herbicidal action in percent (%): 100% activity=the plants have died, 0% activity=like control plants).

[2] = test system: AMARE (Amaranthus retroflexus); assay: Post-emergence herbicidal action against AMARE; conditions: visual assessment after about 3 weeks
Procedure: as §1

[3] = test system: DIGSA (Digitaria sanguinalis); assay: Post-emergence herbicidal action against DIGSA; conditions: visual assessment after about 3 weeks
Procedure: as §1

LOLRI (Lolium rigidum) [4] = assay: Post-emergence herbicidal action against LOLRI; conditions: visual assessment after about 3 weeks
Procedure: as §1

[5] = test system: MATIN (Matricaria inodora); assay: Post-emergence herbicidal action against MATIN; conditions: visual assessment after about 3 weeks
Procedure: as §1

[6] = test system: PHBPU (Pharbitis purpurea); assay: Post-emergence herbicidal action against PHBPU; conditions: visual assessment after about 3 weeks
Procedure: as §1

[7] = test system: POLCO (Polygonum convolvulus); assay: Post-emergence herbicidal action against POLCO; conditions: 80 g/ha, visual assessment after about 3 weeks
Procedure: as §1

SETVI (Setaria viridis) [8] = assay: Post-emergence herbicidal action against SETVI; conditions: visual assessment after about 3 weeks
Procedure: as §1

VERPE (Veronica persica) [9] = assay: Post-emergence herbicidal action against VERPE; conditions: visual assessment after about 3 weeks
Procedure: as §1

VIOTR (Viola tricolor) [10] = assay: Post-emergence herbicidal action against VIOTR; conditions: visual assessment after about 3 weeks
Procedure: as §1

KCHSC (Kochia scoparia) [11] = assay: Post-emergence herbicidal action against KCHSC; conditions: visual assessment after about 3 weeks
Procedure: as §1

AVEFA (Avena fatua) [12] = assay: Post-emergence herbicidal action against AVEFA; conditions: visual assessment after about 3 weeks
Procedure: as §1

[13] = test system: ECHCG (Echinochloa crus-galli); assay: Post-emergence herbicidal action against ECHCG; conditions: visual assessment after about 3 weeks
Procedure: as §1

[14] = test system: ABUTH (Abutylon threophrasti); assay: Pre-emergence herbicidal effect against ABUTH; conditions: scored visually after 3 weeks
Description: (§2) Seeds of monocotyledonous and dicotyledonous weed plants and crop plants are laid out in sandy loam soil in wood-fiber pots and covered with soil. The compounds of the invention, formulated in the form of wettable powders (WP) or as emulsion concentrates (EC), are then applied to the surface of the covering soil as aqueous suspension or emulsion at a water application rate equating to 600 to 800 l/ha with addition of 0.2% wetting agent. After the treatment, the pots are placed in a greenhouse and kept under good growth conditions for the trial plants. The damage to the test plants is scored visually after a test period of 3 weeks by comparison with untreated controls (herbicidal activity in percent (%): 100% activity=the plants have died, 0% activity=like control plants).

[15] = test system: ALOMY (Alopecurus myosuroides); assay: Pre-emergence herbicidal effect against ALOMY; conditions: 80 g/ha, scored visually after 3 weeks
Description: as §2

[16] = test system: AMARE (Amaranthus retroflexus); assay: Pre-emergence herbicidal effect against AMARE; conditions: scored visually after 3 weeks
Description: as §2

AVEFA (Avena fatua) [17] = assay: Pre-emergence herbicidal effect against AVEFA; conditions: 80 g/ha, scored visually after 3 weeks
Description: as §2

[18] = test system: DIGSA (Digitaria sanguinalis); assay: Pre-emergence herbicidal effect against DIGSA; conditions: scored visually after 3 weeks
Description: as §2

[19] = test system: ECHCG (Echinochloa crus-galli); assay: Pre-emergence herbicidal effect against ECHCG; conditions: scored visually after 3 weeks
Description: as §2

[20] = test system: MATIN (Matricaria inodora); assay: Pre-emergence herbicidal effect against MATIN; conditions: scored visually after 3 weeks
Description: as §2

[21] = test system: PHBPU (Pharbitis purpurea); assay: Pre-emergence herbicidal effect against PHBPU; conditions: 80 g/ha, scored visually after 3 weeks
Description: as §2

[22] = test system: POLCO (Polygonum convolvulus); assay: Pre-emergence herbicidal effect against POLCO; conditions: 80 g/ha, scored visually after 3 weeks
Description: as §2

SETVI (Setaria viridis) [23] = assay: Pre-emergence herbicidal effect against SETVI; conditions: scored visually after 3 weeks
Description: as §2

VERPE (Veronica persica) [24] = assay: Pre-emergence herbicidal effect against VERPE; conditions: scored visually after 3 weeks
Description: as §2

VIOTR (Viola tricolor) [25] = assay: Pre-emergence herbicidal effect against VIOTR; conditions: scored visually after 3 weeks
Description: as §2

KCHSC (Kochia scoparia) [26] = assay: Pre-emergence herbicidal effect against KCHSC; conditions: scored visually after 3 weeks
Description: as §2

LOLRI (Lolium rigidum) [27] = assay: Pre-emergence herbicidal effect against LOLRI; conditions: 80 g/ha, scored visually after 3 weeks
Description: as §2

## C[S+]([O-])c1c(OC(F)F)ccc(C(=O)Nc2nnco2)c1Cl (racemic) [Example 1-22]
[1]
  Post-emergence effect at 20 g/ha against ABUTH in %: 100%
  Post-emergence effect at 80 g/ha against ABUTH in %: 100%
[2]
  Post-emergence effect at 20 g/ha against AMARE in %: 100%
  Post-emergence effect at 80 g/ha against AMARE in %: 100%
[3]
  Post-emergence effect at 20 g/ha against DIGSA in %: 100%
  Post-emergence effect at 80 g/ha against DIGSA in %: 100%
LOLRI (Lolium rigidum) [4]
  Post-emergence effect at 80 g/ha against LOLRI in %: 90%
[5]
  Post-emergence effect at 20 g/ha against MATIN in %: 100%
  Post-emergence effect at 80 g/ha against MATIN in %: 100%
[6]
  Post-emergence effect at 80 g/ha against PHBPU in %: 100%
[7]
  Post-emergence effect at 80 g/ha against POLCO in %: 90%
SETVI (Setaria viridis) [8]
  Post-emergence effect at 20 g/ha against SETVI in %: 100%
  Post-emergence effect at 80 g/ha against SETVI in %: 100%
VERPE (Veronica persica) [9]
  Post-emergence effect at 20 g/ha against VERPE in %: 90%
  Post-emergence effect at 80 g/ha against VERPE in %: 100%
VIOTR (Viola tricolor) [10]
  Post-emergence effect at 20 g/ha against VIOTR in %: 100%
  Post-emergence effect at 80 g/ha against VIOTR in %: 100%
KCHSC (Kochia scoparia) [11]
  Post-emergence effect at 20 g/ha against KCHSC in %: 100%
  Post-emergence effect at 80 g/ha against KCHSC in %: 100%
AVEFA (Avena fatua) [12]; 20 g/ha
  Post-emergence effect at 20 g/ha against A VEFA in %: 90%
AVEFA (Avena fatua) [12]
  Post-emergence effect at 80 g/ha against AVEFA in %: 100%
[13]
  Post-emergence effect at 20 g/ha against ECHCG in %: 100%
  Post-emergence effect at 80 g/ha against ECHCG in %: 100%
[14]
  Pre-emergence effect at 20 g/ha against ABUTH in %: 80%
  Pre-emergence effect at 80 g/ha against ABUTH in %: 100%
[15]
  Pre-emergence effect at 80 g/ha against ALOMY in %: 80%
[16]
  Pre-emergence effect at 20 g/ha against AMARE in %: 100%
  Pre-emergence effect at 80 g/ha against AMARE in %: 100%
AVEFA (Avena fatua) [17]
  Pre-emergence effect at 80 g/ha against A VEFA in %: 80%
[18]
  Pre-emergence effect at 20 g/ha against DIGSA in %: 100%
  Pre-emergence effect at 80 g/ha against DIGSA in %: 100%
[19]
  Pre-emergence effect at 20 g/ha against ECHCG in %: 90%
  Pre-emergence effect at 80 g/ha against ECHCG in %: 100%
[20]
  Pre-emergence effect at 20 g/ha against MATIN in %: 100%
  Pre-emergence effect at 80 g/ha against MATIN in %: 100%
[21]
  Pre-emergence effect at 80 g/ha against PHBPU in %: 80%
[22]
  Pre-emergence effect at 80 g/ha against POLCO in %: 90%
SETVI (Setaria viridis) [23]
  Pre-emergence effect at 20 g/ha against SETVI in %: 90%
  Pre-emergence effect at 80 g/ha against SETVI in %: 100%
VERPE (Veronica persica) [24]
  Pre-emergence effect at 20 g/ha against VERPE in %: 80%
  Pre-emergence effect at 80 g/ha against VERPE in %: 90%
VIOTR (Viola tricolor) [25]
  Pre-emergence effect at 20 g/ha against VIOTR in %: 100%
  Pre-emergence effect at 80 g/ha against VIOTR in %: 100%
KCHSC (Kochia scoparia) [26]
  Pre-emergence effect at 20 g/ha against KCHSC in %: 100%
  Pre-emergence effect at 80 g/ha against KCHSC in %: 100%

## CS(=O)(=O)c1c(OC(F)F)ccc(C(=O)Nc2nnco2)c1Cl [Example 1-25, 2-chloro-4-(difluoromethoxy)-3-(methylsulfonyl)-N-(1,3,4-oxadiazol-2-yl)benzamide]
[1]
  Post-emergence effect at 20 g/ha against ABUTH in %: 100%
  Post-emergence effect at 80 g/ha against ABUTH in %: 100%
[2]
  Post-emergence effect at 20 g/ha against AMARE in %: 100%
  Post-emergence effect at 80 g/ha against AMARE in %: 100%
[3]
  Post-emergence effect at 20 g/ha against DIGSA in %: 100%
  Post-emergence effect at 80 g/ha against DIGSA in %: 100%
[5]
  Post-emergence effect at 20 g/ha against MATIN in %: 100%
  Post-emergence effect at 80 g/ha against MATIN in %: 100%
[6]; 20 g/ha
  Post-emergence effect at 20 g/ha against PHBPU in %: 100%
[6]
  Post-emergence effect at 80 g/ha against PHBPU in %: 100%
SETVI (Setaria viridis) [8]
  Post-emergence effect at 20 g/ha against SETVI in %: 100%
  Post-emergence effect at 80 g/ha against SETVI in %: 100%
VERPE (Veronica persica) [9]
  Post-emergence effect at 20 g/ha against VERPE in %: 90%
  Post-emergence effect at 80 g/ha against VERPE in %: 100%
VIOTR (Viola tricolor) [10]
  Post-emergence effect at 20 g/ha against VIOTR in %: 100%
  Post-emergence effect at 80 g/ha against VIOTR in %: 100%
KCHSC (Kochia scoparia) [11]
  Post-emergence effect at 20 g/ha against KCHSC in %: 100%
  Post-emergence effect at 80 g/ha against KCHSC in %: 100%
AVEFA (Avena fatua) [12]
  Post-emergence effect at 80 g/ha against AVEFA in %: 100%
[13]
  Post-emergence effect at 20 g/ha against ECHCG in %: 80%
  Post-emergence effect at 80 g/ha against ECHCG in %: 100%
[14]
  Pre-emergence effect at 20 g/ha against ABUTH in %: 100%
  Pre-emergence effect at 80 g/ha against ABUTH in %: 100%
[16]
  Pre-emergence effect at 20 g/ha against AMARE in %: 100%
  Pre-emergence effect at 80 g/ha against AMARE in %: 100%
AVEFA (Avena fatua) [17]
  Pre-emergence effect at 80 g/ha against A VEFA in %: 90%
[18]
  Pre-emergence effect at 20 g/ha against DIGSA in %: 100%
  Pre-emergence effect at 80 g/ha against DIGSA in %: 100%
[19]
  Pre-emergence effect at 20 g/ha against ECHCG in %: 100%
  Pre-emergence effect at 80 g/ha against ECHCG in %: 100%
LOLRI (Lolium rigidum) [27]
  Pre-emergence effect at 80 g/ha against LOLRI in %: 90%
[20]
  Pre-emergence effect at 20 g/ha against MATIN in %: 100%
  Pre-emergence effect at 80 g/ha against MATIN in %: 100%
[21]
  Pre-emergence effect at 80 g/ha against PHBPU in %: 90%
SETVI (Setaria viridis) [23]
  Pre-emergence effect at 20 g/ha against SETVI in %: 100%
  Pre-emergence effect at 80 g/ha against SETVI in %: 100%
VERPE (Veronica persica) [24]
  Pre-emergence effect at 20 g/ha against VERPE in %: 90%
  Pre-emergence effect at 80 g/ha against VERPE in %: 100%
VIOTR (Viola tricolor) [25]
  Pre-emergence effect at 20 g/ha against VIOTR in %: 100%
  Pre-emergence effect at 80 g/ha against VIOTR in %: 100%
KCHSC (Kochia scoparia) [26]
  Pre-emergence effect at 20 g/ha against KCHSC in %: 100%
  Pre-emergence effect at 80 g/ha against KCHSC in %: 100%

Source: US20240287007A1, “N-(1,3,4-OXADIAZOL-2-YL)PHENYLCARBOXAMIDES AS HERBICIDES” (BAYER AKTIENGESELLSCHAFT, priority 2021, published 2024)
